Data from the supplement of paper PMC10307832.

Columns and labels:
Test in all cases: relative viability (nuclei count vs DMSO), 5 days (fraction); higher = more cells survive
Mirin + OSI-027 = compound: N=C1NC(=O)/C(=C/c2ccc(O)cc2)S1 [Mirin] + COc1cccc2cc(-c3nc([C@H]4CC[C@H](C(=O)O)CC4)n4ncnc(N)c34)[nH]c12 [OSI-027] (partner 0.5 µM)
In short: (§1)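 Dosing by pin tool came one day after lung cancer cell lines were seeded in 1536-well plates, using either one drug or a fixed anchor-drug dose plus five library-drug doses (not always all listed) in √10 steps. After 5 days, nuclei were counted on 4× images. Relative viability is treated-well nuclei count divided by vehicle-well nuclei count, and values are medians of duplicate plates.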

[1] = compound: CCC1=CN=CN=C1N2CCN(CC2)CC3=NC4=C(N3)C=C(C=C4)C(F)(F)F + CCNC(=O)c1noc(-c2cc(C(C)C)c(O)cc2O)c1-c1ccc(CN2CCOCC2)cc1 [Luminespib] (partner 0.01 µM)
In short: as §1

[2] = compound: CCn1c(-c2nonc2N)nc2cnc(Oc3cccc(NC(=O)c4ccc(OCCN5CCOCC5)cc4)c3)cc21 + CC1(C)CCC(c2ccc(Cl)cc2)=C(CN2CCN(c3ccc(C(=O)NS(=O)(=O)c4ccc(N[C@H](CCN5CCOCC5)CSc5ccccc5)c(S(=O)(=O)C(F)(F)F)c4)cc3)CC2)C1 [Navitoclax] (partner 0.5 µM)
In short: as §1

[3] = compound: CCC1=CN=CN=C1N2CCN(CC2)CC3=NC4=C(N3)C=C(C=C4)C(F)(F)F + CS(=O)(=O)CCNCc1ccc(-c2ccc3ncnc(Nc4ccc(OCc5cccc(F)c5)c(Cl)c4)c3c2)o1 [Lapatinib] (partner 2 µM)
In short: as §1

| Cell Line | relative viability (Mirin + OSI-027; first compound 0.25 µM) | relative viability (Mirin + OSI-027; first compound 0.7906 µM) | relative viability (Mirin + OSI-027; first compound 2.5 µM) | relative viability (Mirin + OSI-027; first compound 25 µM) | relative viability ([1]; first compound 0.04 µM) | relative viability ([1]; first compound 0.1265 µM) | relative viability ([1]; first compound 0.4 µM) | relative viability ([1]; first compound 1.265 µM) | relative viability ([1]; first compound 4 µM) | relative viability ([2]; first compound 0.04 µM) | relative viability ([2]; first compound 0.1265 µM) | relative viability ([2]; first compound 0.4 µM) | relative viability ([2]; first compound 1.265 µM) | relative viability ([2]; first compound 4 µM) | relative viability ([3]; first compound 0.04 µM) | relative viability ([3]; first compound 0.1265 µM) | relative viability ([3]; first compound 0.4 µM) | relative viability ([3]; first compound 1.265 µM) | relative viability ([3]; first compound 4 µM) | relative viability (Mirin + OSI-027; first compound 7.906 µM) |
| --- | --- | --- | --- | --- | --- | --- | --- | --- | --- | --- | --- | --- | --- | --- | --- | --- | --- | --- | --- | --- |
| PC-14 | 0.872 | 0.742 | 0.792 | 0.728 | 0.175 | 0.207 | 0.215 | 0.134 | 0.133 | 1.1 | 1.01 | 0.924 | 0.934 | 0.748 | 0.34 | 0.264 | 0.304 | 0.246 | 0.329 |  |
| NCI-H1666 | 0.795 | 0.949 | 0.806 | 0.682 | 0.949 | 0.906 | 0.925 | 0.908 | 1.04 | 1.09 | 1.28 | 1.07 | 0.648 | 0.495 | 0.625 | 0.579 | 0.482 | 0.544 | 0.616 | 0.79 |
| NCI-H1944 | 0.445 | 0.344 | 0.391 | 0.314 | 0.993 | 0.677 | 0.688 | 0.513 | 0.573 | 1.03 | 1.03 |  | 1.02 | 0.97 | 0.976 | 0.691 | 0.767 |  | 0.875 | 0.375 |
| NCI-H2023 | 0.407 | 0.466 | 0.401 | 0.285 | 0.7 | 0.594 | 0.706 | 0.72 | 0.626 | 1.18 | 0.963 | 1.04 | 0.773 | 0.688 | 0.716 | 0.765 | 0.749 | 0.527 | 0.763 | 0.356 |
| NCI-H1755 | 0.686 | 0.75 | 0.662 | 0.766 | 0.458 | 0.483 | 0.311 | 0.338 | 0.308 | 1.06 | 1.01 | 0.944 | 0.992 | 0.996 | 1.07 | 0.93 | 0.981 | 0.924 | 1.1 | 0.687 |
| NCI-H2347 | 0.459 | 0.426 | 0.4 | 0.36 | 0.346 | 0.415 | 0.372 | 0.228 | 0.44 | 0.967 | 0.811 | 0.858 | 0.365 | 0.502 | 1.06 | 0.793 | 0.985 | 0.828 | 1.1 | 0.476 |
| 201T | 0.75 | 0.832 |  | 0.64 | 1.08 | 1.04 | 0.974 | 0.938 | 0.96 | 1.16 | 1.19 | 1.18 | 1.21 | 1.14 | 1.01 | 0.992 | 1.03 | 0.947 | 1.09 | 0.629 |
| NCI-H1734 | 0.636 | 0.574 | 0.525 | 0.488 | 0.213 | 0.196 | 0.173 | 0.207 | 0.185 | 1.11 | 0.81 | 0.684 | 0.564 | 0.345 | 1.03 | 1.07 | 1.08 |  | 1.04 | 0.548 |
| NCI-H596 | 0.826 | 0.747 | 0.842 | 0.746 | 1.25 | 1.02 | 0.814 |  | 1.03 | 1.06 | 0.962 | 1.01 | 1.01 | 1.01 | 0.982 | 1.13 | 0.927 | 0.817 | 1.23 | 0.587 |
| NCI-H1650 | 0.577 | 0.601 | 0.729 | 0.403 | 0.212 | 0.207 | 0.186 |  | 0.213 | 1.79 | 1.31 | 1.34 | 1.08 | 1.05 | 0.721 | 0.797 | 0.711 | 0.39 | 0.645 | 0.643 |
| NCI-H1355 | 0.411 | 0.376 | 0.379 | 0.424 | 0.707 | 0.641 | 0.689 | 0.61 | 0.753 | 0.917 | 0.946 | 1.01 | 0.952 | 0.968 | 1 | 0.812 | 0.952 | 0.844 | 1.1 | 0.406 |
| NCI-H1915 | 0.586 |  | 0.625 | 0.6 | 0.699 | 0.827 | 0.75 | 0.639 | 0.688 | 0.829 | 0.797 | 0.764 | 0.575 | 0.762 | 0.927 | 0.89 | 0.995 | 0.957 | 1.06 | 0.579 |
| BEN | 0.288 | 0.306 | 0.273 | 0.192 | 0.227 | 0.212 | 0.319 | 0.289 | 0.13 | 0.0536 | 0.0704 | 0.0589 | 0.0468 | 0.0489 | 0.535 | 0.731 | 0.597 | 0.492 | 0.437 | 0.286 |
| NCI-H322M | 0.543 | 0.4 | 0.643 | 0.444 | 0.988 | 0.846 | 0.808 | 0.805 | 0.918 | 1.39 | 1.16 | 1.28 | 1.26 | 1.32 | 0.631 | 0.571 | 0.575 | 0.499 | 0.682 | 0.475 |
| SK-MES-1 | 0.584 | 0.643 | 0.684 | 0.528 | 0.779 | 0.951 | 0.718 | 0.735 | 0.793 | 1.32 | 1.35 | 1.1 |  | 1.05 | 0.487 | 0.432 | 0.749 | 0.43 | 0.428 | 0.558 |
| HOP-62 | 0.836 | 0.787 | 0.846 | 0.688 | 1.11 | 0.991 | 0.895 | 0.954 | 0.816 | 1.26 | 1.07 | 1.05 |  | 1.06 | 1.14 | 1.06 | 0.979 | 0.971 | 1.07 | 0.663 |
